Source: patent US11542249B2, “BTK inhibitor compounds” (Eli Lilly and Company, priority 2017, dated 2023)

Experiments:
normal rats = assay: In vivo administration to normal rats for four days (tolerability/toxicity)
From the text: Compounds of the invention, for instance Example 1, show an advantageous combination of pharmacological properties, such as potency, high oral in vivo availabilty, in vivo efficacy, and a favorable toxicity profile in preclinical testing.

human BTK = human BTK (Homo sapiens (Human), UniProt Q06187); assay: BTK LANTHASCREEN Eu Kinase Binding Assay; details: IC50 value ± standard deviation; full-length His-labeled BTK, kinase tracer 236; read-out: hBTK Rel IC50
Experimental: (§1) BTK and EGFR in Vitro Assays:
(§2) The BTK and EGFR biochemical assays utilize LANTHASCREEN® Eu Kinase Binding Assays from Thermo Fisher Scientific, measuring the binding of the kinase with a […] tracer. The assay buffer consists of 50 mM HEPES pH 7.5, 0.01% BRU™-35, 10 mM MgCl2, 1 mM EGTA, and 1 mM DTT. The test compounds are diluted and added to the assay plate with a Labcyte ECHO® 555 liquid handler. The compounds are tested in 10 point dose response curves (100 μM-0.005 μM) with a maximum DMSO concentration of 1%. The assays are performed in 20 μL in low-volume 384-well white proxiplates. For the BTK assay, the concentration of full-length His-labeled BTK in the assay is 5 nM, the Eu-anti-His antibody is 2 nM, and the kinase tracer 236 is 60 nM. For the EGFR assay, the concentration of truncated (amino acids 668-1210) GST-labeled EGFR is 5 nM, the Eu-anti-GST antibody is 2 nM, and the kinase tracer 199 is 10 nM. The components of the assay (compound, enzyme/antibody, tracer) are assembled and incubated for 30 min prior to being read on a Perkin-Elmer EnVision with excitation at 340 nm, tracer emission at 665 nm, and antibody emission at 615 nm. The signal ratio is converted to percent inhibition using the following equation: % Inhibition=100−[(Test Compound−Median Minimum)/(Median Maximum−Median Minimum)×100].
(§3) The following Table 1 and Table 2 describes the relative IC50 data vs. human BTK, human EGFR, and human whole blood CD69.

[1] = tested on: activated B cells in human whole blood (CD69); assay: Human Whole Blood CD69 in vitro assay (B cell activation, flow cytometry); format: cell-based; details: IC50 value ± standard deviation, anti-human-IgD-Dextran stimulation, read-out: HWB CD69 Rel IC50
Experimental: Human Whole Blood CD69 in Vitro Assay:
The HWB CD69 assay measures activated B cells in human whole blood using a flow cytometer. Compounds are diluted and added to assay plates with a Labcyte ECHO® 555 liquid handler. Compounds are tested in 10 point dose response curves (20 μM-0.001 μM) in 96-well v-bottom plates with a maximum DMSO concentration of 0.2%. Fresh blood from individual healthy volunteer is mixed with HEPES (0.5 ml HEPES added per 10 ml blood) and 100 μl/well is added to compound plates. The plates are sealed and incubated in a 37° C. incubator for 3 h. Anti-human-IgD-Dextran is added to each well to give a final concentration of 100 ng/ml, mixed, and put back into the incubator. After 1 h, the cells are washed with cold FACS buffer and transferred to a deep well plate. The cells are incubated with anti-human CD69-PE (BIOLEGEND®, clone FN50) and anti-human CD19-APC (BIOLEGEND®, clone HIB19) antibodies on ice for 20 min. The cells are washed and incubated in eBioscience™ 1-step Fix/Lyse solution (10×) at RT to lyse the red blood cells and fix the other cells. The white cells are pelleted and washed in FACS buffer and then brought up in read buffer. The suspended cells are transferred to 96-well round bottom plates and read on an IntelliCyt iQue® Screener Plus flow cytometer. From the SSC (Side Scatter Channel) vs FSC (Forward Scatter Channel) graph, the lymphocytes are identified. Lymphocytes are identified with gated on positive CD19 marker for quantify CD69 (a marker of activated B lymphocytes) MFI (mean fluorescent intensity/cell). The signal ratio is converted to percent inhibition using the following equation: % Inhibition=100−[(Test Compound−Median Min)/(Median Max−Median Min)×100].
as §3

human EGFR = human EGFR (Homo sapiens (Human), UniProt P00533); assay: EGFR LANTHASCREEN Eu Kinase Binding Assay; details: IC50 value ± standard deviation; truncated GST-labeled EGFR, kinase tracer 199; read-out: hEGFR Rel IC50
Experimental: as §1, §2

[2] = tested on: type II collagen-induced arthritis (CIA) rat model; assay: Rat In Vivo Collagen-Induced Arthritis Assay; parameters: species or system Female Lewis rats; details: for % inhibition paw thickness AUC vs Vehicle control / % paw thickness AUC (mm) ± SE: CIA rats, 9 days; for arthritis severity in CIA rats: compared to vehicle treated CIA rats
Experimental: A type II collagen-induced arthritis (CIA) rat model may be used to evaluate the therapeutic effects of compounds. Female Lewis rats (Charles River Charles River Laboratories, Inc.) with a mean body weight of 155-175 g are used for the study. Animals are fed with standard rodent chow and provided water ad libitum. Immunization emulsion is prepared with 2 mg/ml bovine collagen-II mixed with an equal volume of incomplete Freund's adjuvant (IFA). Rats are immunized intradermally with 0.4 ml collagen emulsion in two sites each on the lower lumbar region, above the base of the tail on day 1, and again on day 8. Animals are randomized based on the paw thickness and body weight on day 11 into study groups, with 8 rats in each group. Compounds are prepared in 1% HEC/0.25% P80/0.05% anti-foam in purified water and dosed daily via oral gavage for 9 days. Paw thickness is quantitated daily using a caliper measurement in the right ankle site.
The inhibition by the compounds of the invention is evaluated using Dunnett's post test for multiple comparisons for the CIA rat groups treated with the indicated Example compound, at the indicated dose, as compared to CIA rat groups treated with vehicle, and differences of P<0.05 are considered to be significant. […] Mean sum paw thickness is decreased compared to vehicle treated CIA rats. Mean percent paw thickness inhibition during the treatment period illustrates dose-related improvement.
Table 4 indicates the in vivo activity for exemplified BTK inhibitors in the collagen-induced arthritis model (SE=standard error).

Rat Oral Bioavailability = format: in vivo, Sprague-Dawley rats; details: Sprague-Dawley, plasma, PO 3 mg/kg vs IV 1 mg/kg, read-out: Rat Oral Bioavailability (% F)
Experimental: The test compound is administered to Sprague-Dawley rats intravenously (IV) at 1 mg/kg (using vehicles of either: 20% CAPTISOL® in 25 mM sodium phosphate buffer, pH2 quantum satis; or 25% DMA, 15% EtOH, 10% propylene glycol, 25% 2-pyrrolidone, and 25% purified water) and orally (PO) at 3 mg/kg (using a vehicle of 1% hydroxyethyl cellulose, 0.25% polysorbate 80, 0.05% Antifoam 1510-US, and purified water quantum satis). Serial blood samples are collected at 0.08, 0.25, 0.5, 1, 2, 4, 8, and 12 h post dose for IV bolus and at 0.25, 0.5, 1, 2, 4, 8, and 12 h post dose after oral administration. After treatment with an EDTA […], plasma is obtained by centrifugation and stored at −70° C. until analysis by LC-MS/MS. Test article concentration is determined in plasma and uploaded into the Watson LIMS™ system where noncompartmental analysis is used to calculate Area Under the Curve (AUC) for both IV and PO arms. Bioavailability (% F) is calculated via the following equation, %F=(AUCPO×DoseIV)/(AUCIV×DosePO)×100. Table 3 indicates the rat oral bioavailability of select BTK inhibitors.

human BTK, sequence (Q06187 whole entry): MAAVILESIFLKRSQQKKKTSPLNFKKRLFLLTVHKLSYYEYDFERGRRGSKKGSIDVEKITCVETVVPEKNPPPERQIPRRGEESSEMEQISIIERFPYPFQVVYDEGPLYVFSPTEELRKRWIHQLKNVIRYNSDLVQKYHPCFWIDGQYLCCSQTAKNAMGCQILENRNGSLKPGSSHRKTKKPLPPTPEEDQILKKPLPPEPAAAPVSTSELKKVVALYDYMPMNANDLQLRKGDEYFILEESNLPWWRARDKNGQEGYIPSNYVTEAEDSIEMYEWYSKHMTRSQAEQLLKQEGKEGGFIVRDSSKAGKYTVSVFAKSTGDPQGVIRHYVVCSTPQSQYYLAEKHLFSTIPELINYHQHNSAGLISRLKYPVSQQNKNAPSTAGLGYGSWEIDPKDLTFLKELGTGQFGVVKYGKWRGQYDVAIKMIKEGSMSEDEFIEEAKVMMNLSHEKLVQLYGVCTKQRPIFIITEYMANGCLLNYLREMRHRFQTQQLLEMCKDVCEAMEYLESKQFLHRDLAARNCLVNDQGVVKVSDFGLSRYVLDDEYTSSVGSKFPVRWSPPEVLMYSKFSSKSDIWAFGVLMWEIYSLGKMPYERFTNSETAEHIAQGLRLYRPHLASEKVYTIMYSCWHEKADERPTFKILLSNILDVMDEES
human EGFR, sequence (P00533 668-1210): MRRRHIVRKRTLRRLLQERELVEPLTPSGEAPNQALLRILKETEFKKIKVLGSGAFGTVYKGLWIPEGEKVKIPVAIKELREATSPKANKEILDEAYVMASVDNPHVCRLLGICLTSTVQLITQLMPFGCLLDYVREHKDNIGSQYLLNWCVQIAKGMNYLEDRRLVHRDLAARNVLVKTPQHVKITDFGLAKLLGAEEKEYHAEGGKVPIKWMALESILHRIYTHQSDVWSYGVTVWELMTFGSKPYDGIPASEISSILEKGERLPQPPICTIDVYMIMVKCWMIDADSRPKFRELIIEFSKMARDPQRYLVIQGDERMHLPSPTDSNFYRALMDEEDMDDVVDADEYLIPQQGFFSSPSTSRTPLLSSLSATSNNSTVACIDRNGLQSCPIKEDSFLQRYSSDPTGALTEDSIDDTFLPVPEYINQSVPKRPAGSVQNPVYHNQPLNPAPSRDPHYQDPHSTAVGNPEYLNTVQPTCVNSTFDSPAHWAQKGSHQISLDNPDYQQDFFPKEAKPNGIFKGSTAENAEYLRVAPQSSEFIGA

Structure (SMILES) | IC50 (human BTK) [µM] | IC50 [1] [µM] | IC50 (human EGFR) [µM] | bioavailability (Rat Oral Bioavailability) [%] | tolerability when administered in vivo (normal rats) | toxicity in vivo (normal rats) | % inhibition paw thickness AUC vs Vehicle control ([2]; 0.5 mg/kg/d oral) [%] | % paw thickness AUC (mm) ± SE ([2]; 0.5 mg/kg/d oral) [mm] | % inhibition paw thickness AUC vs Vehicle control ([2]; 1 mg/kg/d oral) [%] | % paw thickness AUC (mm) ± SE ([2]; 1 mg/kg/d oral) [mm] | % inhibition paw thickness AUC vs Vehicle control ([2]; 3 mg/kg/d oral) [%] | % paw thickness AUC (mm) ± SE ([2]; 3 mg/kg/d oral) [mm] | arthritis severity in CIA rats [2] | % inhibition paw thickness AUC vs Vehicle control ([2]; 0.3 mg/kg/d oral) [%] | % paw thickness AUC (mm) ± SE ([2]; 0.3 mg/kg/d oral) [mm] | % inhibition paw thickness AUC vs Vehicle control ([2]; 10 mg/kg/d oral) [%] | % paw thickness AUC (mm) ± SE ([2]; 10 mg/kg/d oral) [mm]
C=CC(=O)N1CCC(Nc2cncc(-c3cnc(Oc4cccc(Cl)c4)nc3)c2)CC1 [Example 1, 1-[4-[[5-[2-(3-chlorophenoxy)pyrimidin-5-yl]-3-pyridyl]amino]-1-piperidyl]prop-2-en-1-one] | 0.0253 ± 0.00542 | 0.393 ± 0.128 | 0.47 ± 0.0936 | 74 | generally well tolerated | advantageous lack of toxicity | 23 | 73.9 ± 2.5 | 47 | 69.6 ± 2.0 | 81 | 63.4 ± 1.3 | dose-related reduction |  |  |  | 
C=CC(=O)N1CC[C@H](Nc2cncc(-c3cnc(Nc4cccc(OC(F)(F)F)c4)nc3)n2)C1 [Example 33, 1-[(3S)-3-[[6-[2-[3-(trifluoromethoxy)anilino]pyrimidin-5-yl]pyrazin-2-yl]amino]pyrrolidin-1-yl]prop-2-en-1-one] | 0.00944 ± 0.00226 | 0.261 ± 0.145 | 22.2 ± 19.5 | 44.6 |  |  |  |  | 52 | 68.32 ± 2.30 | 59 | 67.00 ± 1.52 | dose-related reduction | 24 | 73.61 ± 2.09 |  | 
C=CC(=O)N1CC(Nc2cncc(-c3cnc(Oc4cccc(OC(F)F)c4)nc3)n2)C1 [Example 24, 1-[3-[[6-[2-[3-(difluoromethoxy)phenoxy]pyrimidin-5-yl]pyrazin-2-yl]amino]azetidin-1-yl]prop-2-en-1-one] | 0.00853 ± 0.00324 | 0.177 ± 0.0416 |  | 41 |  |  |  |  | 28 | 65.04 ± 2.31 | 49 | 61.43 ± 4.47 | dose-related reduction |  |  | 63 | 59.24 ± 1.49

More lines, main results first:

IC50 (human BTK) [µM] | IC50 [1] [µM] | IC50 (human EGFR) [µM] | bioavailability (Rat Oral Bioavailability) [%] | Structure (SMILES) | tolerability when administered in vivo (normal rats) | toxicity in vivo (normal rats) | % inhibition paw thickness AUC vs Vehicle control ([2]; 0.5 mg/kg/d oral) [%] | % paw thickness AUC (mm) ± SE ([2]; 0.5 mg/kg/d oral) [mm] | % inhibition paw thickness AUC vs Vehicle control ([2]; 1 mg/kg/d oral) [%] | % paw thickness AUC (mm) ± SE ([2]; 1 mg/kg/d oral) [mm] | % inhibition paw thickness AUC vs Vehicle control ([2]; 3 mg/kg/d oral) [%] | % paw thickness AUC (mm) ± SE ([2]; 3 mg/kg/d oral) [mm] | arthritis severity in CIA rats [2] | % inhibition paw thickness AUC vs Vehicle control ([2]; 0.3 mg/kg/d oral) [%] | % paw thickness AUC (mm) ± SE ([2]; 0.3 mg/kg/d oral) [mm] | % inhibition paw thickness AUC vs Vehicle control ([2]; 10 mg/kg/d oral) [%] | % paw thickness AUC (mm) ± SE ([2]; 10 mg/kg/d oral) [mm]
 | 0.485 ± 0.234 |  | 36.6 | C=CC(=O)N1CC[C@H](Nc2cncc(-c3cnc(Oc4cccc(OC(F)F)c4)nc3)c2)C1 [Example 5, 1-[(3S)-3-[[5-[2-[3-(difluoromethoxy)phenoxy]pyrimidin-5-yl]-3-pyridyl]amino]pyrrolidin-1-yl]prop-2-en-1-one] |  |  |  |  | 34 | 71.68 ± 2.24 | 58 | 67.18 ± 1.07 |  |  |  |  | 
0.0337 ± 0.0108 | 0.664 ± 0.314 | 10.4 ± 11.5 | 38.4 | C=CC(=O)N1CC(Nc2cncc(-c3cnc(Oc4cccc(OC(F)(F)F)c4)nc3)n2)C1 [Example 27, 1-[3-[[6-[2-[3-(trifluoromethoxy)phenoxy]pyrimidin-5-yl]pyrazin-2-yl]amino]azetidin-1-yl]prop-2-en-1-one] |  |  |  |  | 24 | 73.30 ± 0.95 | 45 | 69.58 ± 1.26 | dose-related reduction |  |  |  | 
0.00949 ± 0.00321 | 0.419 ± 0.118 | 0.366 ± 0.087 | 54.1 | C=CC(=O)N1CC(Nc2cncc(-c3cnc(Oc4cccc(Cl)c4)nc3)n2)C1 [Example 31, 1-[3-[[6-[2-(3-chlorophenoxy)pyrimidin-5-yl]pyrazin-2-yl]amino]azetidin-1-yl]prop-2-en-1-one] |  |  |  |  | 62 | 66.10 ± 1.83 | 81 | 63.70 ± 0.96 | dose-related reduction |  |  | 82 | 64.33 ± 1.00
